According to US20160279110A1, “COMPOSITIONS AND METHODS FOR TREATING CANCER” (UNIVERSITY OF ROCHESTER, priority 2015, published 2016):

Legend:
NMD [1] = experiment: mRNA/pre-mRNA ratio of NMD targets by RT-qPCR in MCF7 cells; type: cell-based, human; conditions: MCF7, 5 μM doxorubicin
Method: (§1) In FIG. 9a, MCF7 cells were treated with […] doxorubicin for the hours (h) indicated. mRNA-to-pre-mRNA ratios for the specified transcripts were measured using RT-qPCR and normalized to the ratio at 0 h, which is defined as 100%. The level of each pre-mRNA was also normalized to the level of GAPDH mRNA, and the normalized level at 0 h is defined as 100%. There are separate scales for the graphs of mRNA/pre-mRNA ratios (left) and the graphs of pre-mRNA/GAPDH mRNA ratios (right). Separately, MCF7 cells were transfected with plasmids encoding reporter β-Gl Norm mRNA or β-Gl Ter mRNA together with a plasmid encoding the reference MUP mRNA and subsequently exposed to doxorubicin (5 μM) for the times indicated. Reporter transcript levels were normalized to the level of MUP mRNA, and the normalized level of β-Gl Ter mRNA was presented as a percentage of the normalized level of β-Gl Norm mRNA, which is defined as 100% at 0 h. Error bars=S.E.M., asterisk=p<0.05 relative to the 0 h time point using the Student's t-test. #=pre-mRNA levels below qPCR detection threshold. n>3 independent biological replicates. […] HeLa and MCF7 cells were transfected with either control (Ctrl) siRNA or UPF1 siRNA, the latter to deplete endogenous UPF1 protein to less than 5% of the normal level (top western blots). mRNA/pre-mRNA ratios were then assessed using RT-qPCR as in FIG. 1a (bottom). Western blots derive from and are representative of 3 independent biological replicates used for the corresponding RT-qPCR analyses. Error bars=S.E.M., asterisk=p<0.05 relative to control siRNA using the Student's t-test. n=3 independent biological replicates.
Cells were homogenized, and RNA was purified using RNeasy mini kits (Qiagen). To ensure linearity of both reverse transcription (RT) and qPCR analyses, 17 standard concentrations were constructed using two-fold serial dilutions of total-cell RNA, beginning with 2 μg. Experimental sample input was 200 ng of RNA. RT was conducted using Superscript III (Invitrogen) according to manufacturer's directions and 100 ng of random hexamer (Invitrogen) in a 20 μl reaction volume. Thermal cycling was as follows: 25° C. for 5 min; 42° C. for 60 min; 50° C. for 60 min; and 75° C. for 10 min. Reactions were diluted to a final volume of 80 μl with water and used for qPCR.
qPCR was conducted using FAST SYBR green master mix (ABI; Foster City, Calif.) according to manufacturer's directions. […]
The stability of a panel of known NMD target mRNAs in human MCF7 breast cancer cells during doxorubicin treatment was examined. […] To support this, the level of each mRNA was measured relative to the level of the pre-mRNA from which it derives as a function of time after doxorubicin treatment to control for transcriptional effects. […]

NMD [2] = experiment: β-Gl Norm/Ter NMD reporter in MCF7 cells during doxorubicin treatment; type: cell-based, human; conditions: MCF7, 5 μM doxorubicin, by 5 h (from ~65% before)
Method: as §1, with “Western blots derive from and are representative of 3 independent biological replicates used for the corresponding RT-qPCR analyses. Error bars=S.E.M., asterisk=p<0.05 relative to control siRNA using the Student's t-test. n=3 independent biological replicates.” left out

With `COc1cccc2c1C(=O)c1c(O)c3c(c(O)c1C2=O)C[C@@](O)(C(=O)CO)C[C@@H]3O[C@H]1C[C@H](N)[C@H](O)[C@H](C)O1` [doxorubicin, Doxorubicin] the “mRNA/pre-mRNA ratio of PANK2, TSTD2, NAT9” value (NMD [1]) was “increases for all three transcripts”, the “CDKN1A mRNA/pre-mRNA ratio increase relative to 0 h” value (NMD [1]; 5 h) was about 5.7 fold and the “CDKN1A pre-mRNA level decrease” value (NMD [1]; 5 h) was about 3.2 fold. The “mRNA/pre-mRNA ratios of CDKN1A, GADD45α, and GADD45β” value (NMD [1]; by 5 h) was “significantly increased” and the “level of β-Gl Ter mRNA as % of the level of β-Gl Norm mRNA” value (NMD [2]) was about 85%.
